Experimental data: PMC6304418, “A Novel Compound Targeting Protease Receptor 1 Activators for the Treatment of Glioblastoma” (Frontiers in Neurology, 2018)
Where a SMILES comes first, the peptide text is derived from it. The star is where a group is joined. Tos = Cc1ccc(S(=O)(=O)*)cc1; CH2Cl = ClC*

How the values were obtained:
[1] = tested on: thrombin mediated PAR1 activation (pERK/ERK) in CNS-1 cells; assay: ERK activation (pERK/ERK, Western blot) in CNS-1 cells; format: cell-based, rat; conditions: thrombin 1 U/ml, 10 min, FCS-free; n = 3; control 1 ± 0.07; p < 0.03 vs. control
Protocol: Cells were seeded (1 × 10^6 cells/75 cm^2 flask) and incubated for 24 h. Then the medium was replaced by FCS-free medium for another 24 h. The cells were treated for 10 min with thrombin (1 U/ml), SIXAC (100 nM), a combination of thrombin and SIXAC or a FCS-free medium which was used as a control (n = 3 for each treatment). The cells were washed and lysed in RIPA buffer (containing in mM: 50 TRIS HCl pH 8, 150 NaCl, 1% NP-40, 0.5% sodium deoxycholate, and 0.1% SDS), a protease inhibitor cocktail (Merck Millipore 539134, 1:100), 0.1 mM sodium orthovanadate and 2 mM PMSF. The cells were scraped, collected and centrifuged (16,000g × 20 min) at 4°C. The supernatants were collected, and protein concentration was determined by means of a bicinchoninic acid (BCA) assay. Each sample (20 μg) was separated by SDS-polyacrylamide gel electrophoresis. The proteins were transferred onto nitrocellulose membranes. Membranes were incubated with mouse anti-phosphorylated Extracellular signal-Regulated Kinase (pERK) antibody (1:10,000, M8159, Sigma), for 1.5 h at room temperature (RT) and washed with Tris-buffered saline and 0.1% Tween 20 (TBST). Membranes were then incubated at RT with horseradish peroxidase-conjugated goat anti-mouse antibody (1:10,000, Jackson Immunoresearch Laboratories). […] Protein bands were detected by a peroxidase-based enhanced chemiluminescence (ECL) method. […]

U87 glioma cells = assay: U87 glioma cell proliferation (XTT); format: cell-based, human; conditions: 72 h
Protocol: CNS-1, C6, and U87 rat and human glioma cells were grown in Dulbecco's modified Eagle's medium (DMEM; Bet Haemek, Biological Industries, Israel) supplemented with 10% fetal bovine serum (Bet Haemek, Biological Industries, Israel) and 1% penicillin and streptomycin in a 5% CO2-humidified atmosphere.
Cell proliferation was evaluated using a 2.3-Bis-(2-methoxy-4-nitro-5-sulfophenyl)-2H-tetrazolium-5-carboxyanilide salt (XTT)-based cell proliferation assay kit (Bet Haemek, Biological Industries, Israel). U87 cells were seeded in 96-well plates (5 × 10^3 cells/well) and incubated for 24 h. The medium was then removed, the tested molecules (10^−13-10^−4 M final concentration) were added in FCS-free medium and introduced to the cells for 72 h. After choosing SIXAC as the leading molecule, it was tested in a similar way in CNS-1 cells (SIXAC 1 μM final concentration). XTT solution (50 μl) was added to each well and incubated for 3 h at 37°C. The optical density (OD) of each well was recorded at 450 and 630 nm in a microplate reader (Infinite M200, Tecan, Durham, NC, USA). Cell viability was expressed as the percentage (ODtest–ODblank)/(ODcontrol–ODblank), where ODtest is the optical density of cells exposed to SIXAC treatment, ODcontrol is the optical density of the control sample, and ODblank is the optical density of wells without glioma cells.

PAR1 = conditions: use limited; ref [34] Gao et al., 2015; cited from earlier work
Source text: Numerous findings support the involvement of the thrombin-PAR1 pathway in glioma pathology ([8], [13], [18]). We have previously found a positive correlation between edema size and PAR1 expression in an animal model of GBM ([19]). […] In addition to the direct thrombin-PAR1 effects on glioma cells, PARs play a crucial role in the control of angiogenesis and vascular permeability by regulating the release of endostatin and vascular endothelial growth fac ...

Compound: thrombin
- pERK/ERK ratio, thrombin alone [1]: 2.09 ± 0.28

Compound: Cc1ccc(S(=O)(=O)N[C@@H](CC(=O)O)C(=O)N2CCC[C@H]2C(=O)N[C@@H](CCCNC(=N)N)C(=O)CCl)cc1 [3AACK] (Tos-Asp-Pro-Arg-CH2Cl)
- U87 proliferation rate ("inhibit proliferation at a rate of") (U87 glioma cells; 10^−5M, FCS-free medium, mean ± SEM, 3AACK vs. 6AACK p < 0.035): 0.58 ± 0.046
- U87 proliferation inhibition, compared with 6AACK (U87 glioma cells; 10^−8M, p = 0.7): inhibits more efficiently the proliferation rate when compared to 6AACK at a concentration of 10^−8M, this was found to be non-significant

Compound: CCOC(=O)N[C@@H]1CC[C@@H]2[C@@H](C1)C[C@H]1C(=O)O[C@H](C)[C@H]1[C@H]2/C=C/c1ccc(-c2cccc(F)c2)cn1 [Vorapaxar]
- bleeding side-effects (PAR1): limited due to bleeding side-effects
